Experimental data taken from patent US10538495B2, “Modulators of indoleamine 2,3-dioxygenase” (GLAXOSMITHKLINE INTELLECTUAL PROPERTY DEVELOPMENT LIMITED, priority 2016, dated 2020).

What was measured:
[1] = target: T1, indoleamine 2,3-dioxygenase (IDO1) (Homo sapiens, UniProt P14902); assay: PBMC IDOi assay (kynurenine by mass spectrometry); format: cell-based; settings: IFN-γ and LPS stimulated human PBMC, 2 days, kynurenine detected by mass spectrometry; read-out: PBMC pIC50 (converted)
Method: (§1) Brief descriptions of the cellular assays are provided following the table.
(§2) Compounds of the present invention were tested via high-throughput cellular assays utilizing detection of kynurenine via mass spectrometry and cytotoxicity as end-points. For the mass spectrometry and cytotoxicity assays, human peripheral blood mononuclear cells (PBMC) (PB003F; AllCells®, Alameda, Calif.) were stimulated with human interferon-γ (IFN-γ) (Sigma-Aldrich Corporation, St. Louis, Mo.) and lipopolysaccharide from Salmonella minnesota (LPS) (Invivogen, San Diego, Calif.) to induce the expression of indoleamine 2,3-dioxygenase (IDO1). Compounds with IDO1 inhibitory properties decreased the amount of kynurenine produced by the cells via the tryptophan catabolic pathway. Cellular toxicity due to the effect of compound treatment was measured using CellTiter-Glo® reagent (CTG) (Promega Corporation, Madison, Wis.), which is based on luminescent detection of ATP, an indicator of metabolically active cells.
(§3) In preparation for the assays, test compounds were serially diluted 3-fold in DMSO from a typical top concentration of 5 mM and plated at 0.5 μL in 384-well, polystyrene, clear bottom, tissue culture treated plates with lids (Greiner Bio-One, Kremsmünster, Austria) to generate 11-point dose response curves. Low control wells (0% kynurenine or 100% cytotoxicity) contained either 0.5 μL of DMSO in the presence of unstimulated (−IFN-γ/−LPS) PBMCs for the mass spectrometry assay or 0.5 μL of DMSO in the absence of cells for the cytotoxicity assay, and high control wells (100% kynurenine or 0% cytotoxicity) contained 0.5 μL of DMSO in the presence of stimulated (+IFN-γ/+LPS) PBMCs for both the mass spectrometry and cytotoxicity assays.
Frozen stocks of PBMCs were washed and recovered in RPMI 1640 medium (Thermo Fisher Scientific, Inc., Waltham, Mass.) supplemented with 10% v/v heat-inactivated fetal bovine serum (FBS) (Thermo Fisher Scientific, Inc., Waltham, Mass.), and 1× penicillin-streptomycin antibiotic solution (Thermo Fisher Scientific, Inc., Waltham, Mass.). The cells were diluted to 1,000,000 cells/mL in the supplemented RPMI 1640 medium. 50 μL of either the cell suspension, for the mass spectrometry assay, or medium alone, for the cytotoxicity assay, were added to the low control wells, on the previously prepared 384-well compound plates, resulting in 50,000 cells/well or 0 cells/well respectively. IFN-γ and LPS were added to the remaining cell suspension at final concentrations of 100 ng/ml and 50 ng/ml respectively, and 50 μL of the stimulated cells were added to all remaining wells on the 384-well compound plates. The plates, with lids, were then placed in a 37° C., 5% CO2 humidified incubator for 2 days.
Following incubation, the 384-well plates were removed from the incubator and allowed to equilibrate to room temperature for 30 minutes. For the cytotoxicity assay, CellTiter-Glo® was prepared according to the manufacturer's instructions, and 40 μL were added to each plate well. After a twenty minute incubation at room temperature, luminescence was read on an EnVision® Multilabel Reader (PerkinElmer Inc., Waltham, Mass.). For the mass spectrometry assay, 10 μL of supernatant from each well of the compound-treated plates were added to 40 μL of acetonitrile, containing 10 μM of an internal standard for normalization, in 384-well, polypropylene, V-bottom plates (Greiner Bio-One, Kremsmünster, Austria) to extract the organic analytes. Following centrifugation at 2000 rpm for 10 minutes, 10 μL from each well of the acetonitrile extraction plates were added to 90 μL of sterile, distilled H2O in 384-well, polypropylene, V-bottom plates for analysis of kynurenine and the internal standard on the RapidFire 300 (Agilent Technologies, Santa Clara, Calif.) and 4000 QTRAP MS (SCIEX, Framingham, Mass.). […]

[2] = target: T1, indoleamine 2,3-dioxygenase (IDO1); assay: HeLa IDOi assay (kynurenine by mass spectrometry); format: cell-based; parameters: human epithelial HeLa cells (CCL-2; host or cells: HeLa cells stimulated with human IFN-γ; settings: IFN-γ stimulated HeLa cells, 2 days, kynurenine detected by mass spectrometry; read-out: HeLa pIC50 (converted)
Method: as §1
as §2, with “epithelial HeLa” for “peripheral blood mononuclear”, “(CCL-2; ATCC®, Manassas, Va.)” for “(PBMC) (PB003F; AllCells®, Alameda, Calif.)”, “Mo.)” for “Mo.) and lipopolysaccharide from Salmonella minnesota (LPS) (Invivogen, San Diego, Calif.)”
as §3, with “(−IFN-γ) HeLa cells” for “(−IFN-γ/−LPS) PBMCs”, “(+IFN-γ) HeLa cells” for “(+IFN-γ/+LPS) PBMCs”
Frozen stocks of HeLa cells were washed and recovered in DMEM high glucose medium with HEPES (Thermo Fisher Scientific, Inc., Waltham, Mass.) supplemented with 10% v/v certified fetal bovine serum (FBS) (Thermo Fisher Scientific, Inc., Waltham, Mass.), and 1× penicillin-streptomycin antibiotic solution (Thermo Fisher Scientific, Inc., Waltham, Mass.). The cells were diluted to 100,000 cells/mL in the supplemented DMEM medium. 50 μL of either the cell suspension, for the mass spectrometry assay, or medium alone, for the cytotoxicity assay, were added to the low control wells, on the previously prepared 384-well compound plates, resulting in 5,000 cells/well or 0 cells/well respectively. IFN-γ was added to the remaining cell suspension at a final concentration of 10 nM, and 50 μL of the stimulated cells were added to all remaining wells on the 384-well compound plates. The plates, with lids, were then placed in a 37° C., 5% CO2 humidified incubator for 2 days.
Following incubation, the 384-well plates were removed from the incubator and allowed to equilibrate to room temperature for 30 minutes. For the cytotoxicity assay, CellTiter-Glo® was prepared according to the manufacturer's instructions, and 10 μL were added to each plate well. After a twenty minute incubation at room temperature, luminescence was read on an EnVision® Multilabel Reader (PerkinElmer Inc., Waltham, Mass.). For the mass spectrometry assay, 10 μL of supernatant from each well of the compound-treated plates were added to 40 μL of acetonitrile, containing 10 μM of an internal standard for normalization, in 384-well, polypropylene, V-bottom plates (Greiner Bio-One, Kremsmünster, Austria) to extract the organic analytes. Following centrifugation at 2000 rpm for 10 minutes, 10 μL from each well of the acetonitrile extraction plates were added to 90 μL of sterile, distilled H2O in 384-well, polypropylene, V-bottom plates for analysis of kynurenine and the internal standard on the RapidFire 300 (Agilent Technologies, Santa Clara, Calif.) and 4000 QTRAP MS (SCIEX, Framingham, Mass.). MS data were integrated using Agilent Technologies' RapidFire Integrator software, and data were normalized for analysis as a ratio of kynurenine to the internal standard. […]

T1 sequence (P14902 whole entry): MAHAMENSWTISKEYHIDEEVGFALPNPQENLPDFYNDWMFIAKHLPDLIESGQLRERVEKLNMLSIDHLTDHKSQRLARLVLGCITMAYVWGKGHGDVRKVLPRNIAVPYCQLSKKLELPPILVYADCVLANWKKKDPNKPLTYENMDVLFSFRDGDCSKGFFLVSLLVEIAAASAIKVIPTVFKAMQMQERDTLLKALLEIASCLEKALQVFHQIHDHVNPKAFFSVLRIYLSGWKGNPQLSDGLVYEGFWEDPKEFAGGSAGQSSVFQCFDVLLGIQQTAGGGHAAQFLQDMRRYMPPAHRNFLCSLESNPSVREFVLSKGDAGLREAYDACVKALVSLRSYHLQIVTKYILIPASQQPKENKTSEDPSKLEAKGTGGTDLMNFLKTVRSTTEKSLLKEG

| IC50 [1] [nM] | IC50 [2] [nM] | Structure (SMILES) |
| --- | --- | --- |
| 12.6 | 15.8 | Cc1ccc(CC(=O)Nc2cc(-c3ccccc3-c3nn[nH]n3)ccc2SC(C)(C)C)cc1 [Example 1, N-(4-(tert-butylthio)-2′-(2H-tetrazol-5-yl)-[1,1′-biphenyl]-3-yl)-2-(p-tolyl)acetamide] |
| 794 | 316 | Cc1ccc(CC(=O)Nc2cc(-c3ccccc3C(=O)O)ccc2SC(C)(C)C)cc1 [Example 4, 4′-(tert-Butylthio)-3′-(2-(p-tolyl)acetamido)-[1,1′-biphenyl]-2-carboxylic acid] |
| 126 | 251 | Cc1ccc(CC(=O)Nc2cc(-c3ccccc3-c3nn[nH]n3)ccc2Sc2ccccc2)cc1 [Example 10] |
| 79.4 | 398 | Cc1ccc(NC(=O)Nc2cc(-c3ccccc3-c3nn[nH]n3)ccc2SC(C)(C)C)cc1 [Example 13, 1-(4-(tert-Butylthio)-2′-(2H-tetrazol-5-yl)-[1,1′-biphenyl]-3-yl)-3-(p-tolyl)urea] |
| 2000 | 2000 | Cc1ccc(CC(=O)Nc2cc(-c3ccccc3-c3nn[nH]n3)ccc2S(=O)(=O)c2ccccc2)cc1 [Example 15, N-(4-(phenylsulfonyl)-2′-(2H-tetrazol-5-yl)-[1,1′-biphenyl]-3-yl)-2-(p-tolyl)acetamide] |
| 10 | 15.8 | Cc1ccccc1CC(=O)Nc1cc(-c2ccccc2-c2nn[nH]n2)ccc1SC(C)(C)C [Example 19, N-(4-(tert-butylthio)-2′-(2H-tetrazol-5-yl)-[1,1′-biphenyl]-3-yl)-2-(o-tolyl)acetamide] |
| 20 | 25.1 | Cc1cccc(CC(=O)Nc2cc(-c3ccccc3-c3nn[nH]n3)ccc2SC(C)(C)C)c1 [Example 20, N-(4-(tert-butylthio)-2′-(2H-tetrazol-5-yl)-[1,1′-biphenyl]-3-yl)-2-(m-tolyl)acetamide] |
| 3.16 | 3.98 | CC(C)c1ccc(CC(=O)Nc2cc(-c3ccccc3-c3nn[nH]n3)ccc2SC(C)(C)C)cc1 [Example 27, N-(4-(tert-butylthio)-2′-(2H-tetrazol-5-yl)-[1,1′-biphenyl]-3-yl)-2-(4-isopropylphenyl)acetamide] |
| 25.1 | 79.4 | CC(C)(C)Sc1ccc(-c2ccccc2-c2nn[nH]n2)cc1NC(=O)Cc1ccc(Cl)cc1 [Example 34, N-(4-(tert-butylthio)-2′-(2H-tetrazol-5-yl)-[1,1′-biphenyl]-3-yl)-2-(4-chlorophenyl)acetamide] |
| 1260 | 2510 | CC(C)(C)Sc1ccc(-c2ccccc2-c2nn[nH]n2)cc1NC(=O)c1ccccc1 [Example 36, N-(4-(tert-butylthio)-2′-(2H-tetrazol-5-yl)-[1,1′-biphenyl]-3-yl)benzamide] |
| 251 | 794 | Cc1ccc(CCC(=O)Nc2cc(-c3ccccc3-c3nn[nH]n3)ccc2SC(C)(C)C)cc1 [Example 37, N-(4-(tert-butylthio)-2′-(2H-tetrazol-5-yl)-[1,1′-biphenyl]-3-yl)-3-(p-tolyl)propanamide] |
| 1.58 | 2.51 | Cc1cc(C)c(CC(=O)Nc2cc(-c3ccccc3-c3nn[nH]n3)ccc2SC(C)(C)C)c(C)c1 [Example 39, N-(4-(tert-butylthio)-2′-(2H-tetrazol-5-yl)-[1,1′-biphenyl]-3-yl)-2-mesitylacetamide] |
| 20 | 31.6 | CC(C)(C)Sc1ccc(-c2ccccc2-c2nn[nH]n2)cc1NC(=O)Cc1ccc(Br)cc1 [Example 40, 2-(4-Bromophenyl)-N-(4-(tert-butylthio)-2′-(2H-tetrazol-5-yl)-[1,1′-biphenyl]-3-yl)acetamide] |
| 12.6 | 50.1 | CC(C)(C)Sc1ccc(-c2ccccc2-c2nn[nH]n2)cc1Nc1nc(C(F)(F)F)ns1 [Example 43, N-(4-(tert-butylthio)-2′-(2H-tetrazol-5-yl)-[1,1′-biphenyl]-3-yl)-3-(trifluoromethyl)-1,2,4-thiadiazol-5-amine] |
| 3980 |  | Cc1ccc(CC(=O)Nc2cc(C(C)CC(=O)O)ccc2SC(C)(C)C)cc1 (centres unmarked) [Example 44, 3-(4-(tert-Butylthio)-3-(2-(p-tolyl)acetamido)phenyl)butanoic Acid] |
| 5010 | 6310 | Cc1ccc(CC(=O)Nc2cc(-c3ccccc3C#N)ccc2SC(C)(C)C)cc1 [Example 46, N-(4-(tert-butylthio)-2′-cyano-[1,1′-biphenyl]-3-yl)-2-(p-tolyl)acetamide] |
| 501 | 501 | Cc1ccc(CC(=O)Nc2cc(-c3ccccc3C(N)=O)ccc2SC(C)(C)C)cc1 [Example 47, 4′-(tert-Butylthio)-3′-(2-(p-tolyl)acetamido)-[1,1′-biphenyl]-2-carboxamide] |

| Structure (SMILES) | IC50 [1] [nM] | IC50 [2] [nM] |
| --- | --- | --- |
| Cc1ccc(OC(=O)Nc2cc(-c3ccccc3-c3nn[nH]n3)ccc2SC(C)(C)C)cc1 [Example 35, p-Tolyl (4-(tert-butylthio)-2′-(2H-tetrazol-5-yl)-[1,1′-biphenyl]-3-yl)carbamate] | 1580 | > 3160 |
